Values joined by “and” are separate entries in the source; they are usually repeats but may differ in a detail not shown here. Equal entries are not always repeated.

The assay has as its target T1, Parkin ligase (Homo sapiens, UniProt O60260).
T1 sequence (O60260 1-465): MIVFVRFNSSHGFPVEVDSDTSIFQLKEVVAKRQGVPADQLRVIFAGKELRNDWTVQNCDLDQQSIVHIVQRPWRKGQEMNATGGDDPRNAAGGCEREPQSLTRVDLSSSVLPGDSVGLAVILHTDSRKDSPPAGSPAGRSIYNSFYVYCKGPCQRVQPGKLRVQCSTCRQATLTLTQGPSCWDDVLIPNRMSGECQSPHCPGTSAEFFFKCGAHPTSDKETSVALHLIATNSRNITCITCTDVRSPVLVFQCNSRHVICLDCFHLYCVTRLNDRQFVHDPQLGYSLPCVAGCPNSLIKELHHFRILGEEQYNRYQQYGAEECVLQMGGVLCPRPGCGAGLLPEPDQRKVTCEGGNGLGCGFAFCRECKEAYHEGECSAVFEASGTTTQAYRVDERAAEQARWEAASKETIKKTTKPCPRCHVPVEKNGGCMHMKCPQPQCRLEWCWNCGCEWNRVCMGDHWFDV
The assay is described as follows: Activity-Based Probe Assay using Ubiquitin vinyl sulfone probe (TR-FRET). In kind it is biochemical. Conditions: heat activated Parkin, HA-Ub-VS probe, activation EC50; read-out: Probe Assay EC50 (μM) [Example 2]. As for the experimental part:
An Ubiquitin vinyl sulfone probe can be used that irreversibly binds to the active site cysteine of Parkin ligase. Covalent attachment of the probe to the Parkin can be monitored by TR-FRET. Candidate activator compounds can be identified by increasing the activity of Parkin ligase due to an increase in TR-FRET signal. Screening for activating compounds can be distinguished from the controls as follows: 100% activation signal=Heat activated Parkin+100 nM control activator in DMSO. 0% activation signal=Heat activated Parkin+DMSO only. Parkin activators can be identified by an increase of the 0% activation signal TR-FRET signal. Assay Conditions: Materials: • Assay Plate: White 384 well plate (Corning 3572) • Enzyme: Parkin-His tagged 203 μM (10.5 mg/ml) • Probe: Ubiquitin vinyl-sulfone (HA-Ub-VS Boston Biochem U-212) • DMSO: DMSO (Sigma cat #D4540-100ML) • Reaction Buffer: 50 mM HEPES (pH 8.5), 150 mM NaCl, 0.01% Tween 20, 0.1% BSA • Detection Buffer: 50 mM HEPES (pH 8.5), 150 mM NaCl, 0.01% Tween 20, 0.1% BSA, 800 mM KF • Detection Reagent A: 2.6 nM Anti-6HIS-Eu cryptate and 40 nM Anti-HA-XL665 in detection buffer • Eu cryptate: Anti-6HIS-Eu cryptate (CisBio 61HISKLA) • XL665: Anti-HA-XL665 (CisBio 610HAXLA) Enzyme Reaction (15 Min Pre Incubation Parkin with Activator Only) • Parkin: 40 nM • HA-Ub-VS Probe: 70 nM • Activator/DMSO: 2× Activator/2% DMSO Reaction time: 60 minutes Temperature: 22° C. Total volume: 10 μl reaction Detection Reaction Take […] of Enzyme Reaction above and add 10 μl detection Reagent A under the following conditions: • Reaction time: 60 minutes • Temperature: 22° C. • Total volume: 20 μl
Assay procedure (Using HP D-300 compound dispenser and Bravo for the operation):
1) Heat activate Parkin in reaction buffer (500 μl/1.5 ml tube: Eppendorf Thermomixer 5 minutes, 400 rpm at 58° C. and put on ice until needed).
2) Load assay plate wells with 4.8 μl 84.5 nM Parkin in reaction buffer by use of Bravo.
3) Deliver 0.2 μl 200× activator candidates in DMSO by use of HP D-300 compound dispenser. Highest 200× concentration=[…] and then twofold dilutions.
4) Spin 1000 rpm, 2 minutes, at room temp.
5) Incubate plate for 15 minutes at room temp.
6) Add 5 μl 140 nM HA-Ub-VS Probe in reaction buffer by use of Bravo.
7) Spin 1000 rpm, 2 minutes, at room temp.
8) Incubate plate for 60 minutes at room temp.
9) Add 10 μl 2.6 nM Anti-6HIS-Eu cryptate and 40 nM […] in detection buffer.
10) Spin 1000 rpm, 2 minutes, at room temp.
11) Incubate plate for 60 minutes at room temp.
12) Read plates on Perkin Elmer Envision instrument with the following parameters:
LANCE dual laser protocol loaded into the Envision® software
Top Mirror: LANCE/DELFIA Duel/Bias (Bar code 446)
Emission Filter: APC 665 EM (Bar code 205)
2nd Emission Filter: Europium 615 EM (Bar code 203)
Read 655 nm (channel 1) and 615 nm (channel 2) wavelengths on Envision®
Data Analysis: The Data can be read in CSV files. There are two tables in those CSV files, which are the values of 655 nm (channel 1) and 615 nm (channel 2) wavelengths respectively. The data is converted to an HTRF Ratio=(Channel 1/Channel 2)*10,000
The average of all the 0 μM controls (DMSO only)=BKGD (Background—0% activation). Subtract BKGD from each HTRF Ratio value=HTRF−BKGD. The average of all the […] 100 nM control activator in DMSO controls=Max (100% activation). The following equation is then used to calculate % Activation for each well/candidate as follows: % Activation=(HTRF−BKGD/Max)*100.
Graphpad Prism was used with Transform X values: X=Log(X) and nonlinear regression (dose-response-stimulation): Log(agonist) vs Response−variable slope (four parameters) with constrains set to Bottom=0 and Top=100.
The Activity-Based Probe Assay was performed with various compounds in Tables 1, 2, 3A and 3B.
In general terms: In TR-FRET formats the signal depends on donor and acceptor labels being close together.
`c1ccc(-n2nc(NCc3ccccn3)nc2NCc2ccccn2)cc1` [Compound 144]: the EC50 is more than 100 µM.

`Cc1ccccc1C(=O)Nc1nc(NC(=O)c2cccnc2)nn1-c1ccc(OC(F)(F)F)cc1` [Compound 86]: the EC50 turned out to be 6 µM.

Regarding `Cc1ccccc1C(=O)Nc1nc(NC(=O)c2cccc(N=[N+]=[N-])c2)n(-c2ccccc2)n1` [Compound 69], the EC50 came out at 4 µM.

For the compound `Cc1ccccc1C(=O)Nc1nc(NC(=O)c2ccccc2C)n(-c2ccc(N3CCN(C)CC3)cc2)n1` [Compound 68], the EC50 is 24 µM.

In the case of `O=C(Nc1nc(NC(=O)c2c(F)c(F)c(F)c(F)c2F)nn1-c1ccccc1)c1ccccc1` [Compound 78], the EC50 is 0.2 µM and 0.4 µM and 0.5 µM.

Turning to `c1ccc(CNc2nc(NCc3ccccc3)n(-c3ccccc3)n2)cc1` [Compound 138], the EC50 was more than 100 µM.

Turning to `Cc1ccccc1C(=O)Nc1nc(NC(=O)c2ccncc2)nn1-c1cccc(F)c1` [Compound 89], the EC50 was determined as 2 µM.

For the compound `Cc1ccccc1C(=O)Nc1nc(NCc2ccccc2)nn1-c1ccc(OC(F)(F)F)cc1` [Compound 105], the EC50 was determined as 1 µM.

As to `O=C(Nc1nc(NC(=O)c2cccnc2)n(-c2ccc(Cl)cc2)n1)c1cccnc1` [Compound 81], the EC50 was found to be 3 µM.

For the compound `Cn1cnc(-c2nc(N)n(-c3ccccc3)n2)c1` [Compound 147], the concentration for a half-maximal effect (EC50) is more than 100 µM.

As to `Cc1ccccc1C(=O)Nc1nc(NC(=O)c2cn(C)cn2)n(-c2ccccc2)n1` [Compound 22], the EC50 is more than 100 µM.

`Cc1ccccc1C(=O)Nc1nc(-c2cscn2)nn1-c1ccccc1` [Compound 135]: the EC50 is more than 100 µM.

For the compound `Cc1ccccc1C(=O)Nc1nc(NC(=O)c2cccnc2)nn1-c1cccc(F)c1` [Compound 87], the EC50 amounted to 7 µM.

For `Cc1ccccc1C(=O)Nc1nc(NC(=O)c2c(F)cccc2F)nn1-c1ccccc1` [Compound 119], the EC50 came to 2 µM.

In the case of `Cc1cccc(C)c1C(=O)Nc1nc(NC(=O)c2c(C)cccc2C)n(-c2ccccc2)n1` [Compound 100], the EC50 came to 9 µM.

As to `Cc1ccccc1C(=O)Nc1nc(NC(=O)C2CCCN2)n(-c2ccccc2)n1` (centres unmarked) [Compound 15], the 50% effective concentration (EC50) is more than 100 µM.

For the compound `COc1cccc(CNc2nc(NC(=O)c3ccccc3C)n(-c3ccc(OC(F)(F)F)cc3)n2)c1` [Compound 110], the EC50 is 2 µM.

Take `Cc1ccccc1C(=O)Nc1nc(-c2cccc[n+]2[O-])nn1-c1ccccc1` [Compound 130]: the 50% effective concentration (EC50) came out at 5 µM.

For `C#Cc1ccc(C(=O)Nc2nc(NC(=O)c3ccc(N=[N+]=[N-])cc3)nn2-c2ccccc2)cc1` [Compound 53], the EC50 is more than 100 µM.

In the case of `Cc1ccccc1C(=O)Nc1nc(NC(=O)C2CCN(CCC#N)CC2)nn1-c1ccccc1` [Compound 45], the EC50 was more than 100 µM.

Turning to `Cc1ccccc1C(=O)Nc1nc(-c2ncccc2F)nn1-c1ccccc1` [Compound 136], the EC50 is more than 100 µM.

Regarding `COc1ccc(CNc2nc(NC(=O)c3ccccc3C)n(-c3ccc(OC(F)(F)F)cc3)n2)cc1` [Compound 107], the EC50 is 1 µM.

On to `Cc1ccccc1C(=O)Nc1nc(NC(=O)c2ccccc2C)n(-c2ccc3c(c2)CCO3)n1` [Compound 1], for which the concentration giving a half-maximal response (EC50) is 52 µM and > 100 µM.

As for `Cc1ccccc1C(=O)Nc1nc(NC(=O)c2ccc(N=[N+]=[N-])cc2)nn1-c1ccc(OC(F)(F)F)cc1` [Compound 76], the EC50 came out at 34 µM.

`c1ccc(-n2nc(NCCc3ccccn3)nc2NCCc2ccccn2)cc1` [Compound 145]: the EC50 is more than 100 µM.

For the compound `O=C(Nc1nc(NC(=O)c2c(F)c(F)c(F)c(F)c2F)n(-c2ccccc2)n1)c1ccccc1` [Compound 55], the EC50 came out at 12 µM.

`Cc1ccccc1C(=O)Nc1nc(NC(=O)c2ccccc2C)n(-c2cnn(C)c2)n1` [Compound 47]: the EC50 stood at 16 µM.

Turning to `Cc1ccccc1C(=O)Nc1nc(NCc2ccccn2)nn1-c1ccccc1` [Compound 101], the EC50 worked out at 18 µM.

As to `Cc1ccccc1C(=O)Nc1nc(-c2ncccc2C)nn1-c1ccc(Cl)cc1` [Compound 142], the EC50 is 0.3 µM.

Take `Cc1ccccc1C(=O)Nc1nc(NC(=O)c2cccc(N=[N+]=[N-])c2)nn1-c1ccc(OC(F)(F)F)cc1` [Compound 77]: the half-maximal effective concentration (EC50) came out at 6 µM.

For `Cc1ccccc1C(=O)Nc1nc(NC(=O)c2cccnc2)nn1-c1ccc(Cl)cc1` [Compound 95], the concentration giving a half-maximal response (EC50) was 4 µM.

For the compound `Cc1ccccc1C(=O)Nc1nc(NCc2ccccc2)nn1-c1ccccc1` [Compound 84], the EC50 was 4 µM.

For `Cc1ccccc1C(=O)Nc1nc(NCCc2ccccc2)nn1-c1ccc(Cl)cc1` [Compound 109], the EC50 was determined as 1 µM.

For `Cc1ccccc1C(=O)Nc1nc(NCc2ccc(Cl)cc2)nn1-c1ccc(OC(F)(F)F)cc1` [Compound 113], the EC50 worked out at 0.8 µM.

Regarding `CCc1ccccc1C(=O)Nc1nc(NC(=O)c2ccccc2CC)n(-c2ccccc2)n1` [Compound 88], the EC50 is 5 µM.

As to `c1ccc(CCNc2nc(NCCc3ccccc3)n(-c3ccccc3)n2)cc1` [Compound 143], the 50% effective concentration (EC50) is more than 100 µM.

In the case of `O=C(Nc1nc(NC(=O)c2ccncc2)n(-c2ccc(Cl)cc2)n1)c1ccncc1` [Compound 82], the EC50 stood at 2 µM.

In the case of `Cc1ccccc1C(=O)Nc1nc(NC(=O)C2CCCNC2)n(-c2ccccc2)n1` (centres unmarked) [Compound 14], the EC50 was more than 100 µM.

For `Cc1ccccc1C(=O)Nc1nc(NC(=O)C2CCCNC2)nn1-c1ccccc1` (centres unmarked) [Compound 19], the 50% effective concentration (EC50) is more than 100 µM.

For `Cc1ccccc1C(=O)N(C(=O)c1ccccc1)c1nc(N)n(-c2ccccc2)n1` [Compound 148], the EC50 is more than 100 µM.

Consider `Cc1ccccc1C(=O)Nc1nc(NC(=O)C2CNC2)nn1-c1ccccc1` [Compound 43], for which the EC50 was more than 100 µM.

For `Cc1ccccc1C(=O)Nc1nc(NC(=O)c2ccc(N=[N+]=[N-])cc2)n(-c2ccccc2)n1` [Compound 70], the EC50 amounted to 4 µM.

For `Cc1ccccc1C(=O)Nc1nc(N[C@H](C)c2ccccc2)nn1-c1ccc(OC(F)(F)F)cc1` [Compound 118], the EC50 worked out at 1 µM.

For `O=S(=O)(Nc1nc(NS(=O)(=O)c2ccccc2)n(-c2ccccc2)n1)c1ccccc1` [Compound 83], the EC50 was more than 100 µM.

For `Cc1cncc(F)c1C(=O)Nc1nc(NC(=O)c2c(C)cncc2F)n(-c2ccccc2)n1` [Compound 93], the EC50 is more than 100 µM.

Take `O=C(Nc1nc(NC(=O)c2cccnc2)n(-c2cccc(F)c2)n1)c1cccnc1` [Compound 72]: the EC50 was determined as 2 µM.

Take `COc1ccccc1CNc1nc(NC(=O)c2ccccc2C)n(-c2ccc(OC(F)(F)F)cc2)n1` [Compound 111]: the 50% effective concentration (EC50) came to 2 µM.

The term EC50 denotes the concentration needed to bring the measured effect to its halfway point.

The values are drawn from patent US10889553B2, “Asymmetric triazole benzamide derivatives and the compositions and methods of treatment regarding the same” (NysnoBio Ireland DAC, priority 2017, dated 2021).
